# Reference: patent US20220033407A1, “N-(pyridin-2-ylsulfonyl)cyclopropanecarboxamide Derivatives and their Use in the Treatment of Disease” (NOVARTIS AG, priority 2018, published 2022)
# pEC50: −log10 of the molar value.
# Experiments:
# delF508-CFTR = molecular target: T1, delF508-CFTR (Homo sapiens, UniProt P13569, DEL508-508); test: delF508-CFTR functional activity in primary human bronchial epithelial cells (HBECs), Multi-Transepithelial Clamp Circuit (MTECC-24) assay, equivalent short circuit current; assay type: cell-based; settings: primary CF HBECs; for MTECC24 CFHBEC-Amax %: relative to reference combination 2 μM 3-(6-(1-(2,2-difluorobenzo[d][1,3]dioxol-5-yl)cyclopropane-1-carboxamido)-3-methylpyridin-2-yl)benzoic acid (24 h) + 0.5 μM N-(2,4-di-tert-butyl-5-hydroxyphenyl)-4-oxo-1,4-dihydroquinoline-3-carboxamide; for pEC50: test compound added 24 h before assay, potentiator (S)-3-amino-6-methoxy-N-(3,3,3-trifluoro-2-hydroxy-2-methylpropyl)-5-(trifluoromethyl)picolinamide present at assay, mean of at least two replicates, read-out: MTECC24 CFHBEC-EC50
# T1 construct: functional activity of the CFTR channel (Chloride ion transport) in patient derived primary human bronchial epithelial cells; host or cells: patient-derived primary human bronchial epithelial cells (HBECs), delF508-CFTR
# T1 sequence (P13569 with tags, fused parts or gaps DEL508-508): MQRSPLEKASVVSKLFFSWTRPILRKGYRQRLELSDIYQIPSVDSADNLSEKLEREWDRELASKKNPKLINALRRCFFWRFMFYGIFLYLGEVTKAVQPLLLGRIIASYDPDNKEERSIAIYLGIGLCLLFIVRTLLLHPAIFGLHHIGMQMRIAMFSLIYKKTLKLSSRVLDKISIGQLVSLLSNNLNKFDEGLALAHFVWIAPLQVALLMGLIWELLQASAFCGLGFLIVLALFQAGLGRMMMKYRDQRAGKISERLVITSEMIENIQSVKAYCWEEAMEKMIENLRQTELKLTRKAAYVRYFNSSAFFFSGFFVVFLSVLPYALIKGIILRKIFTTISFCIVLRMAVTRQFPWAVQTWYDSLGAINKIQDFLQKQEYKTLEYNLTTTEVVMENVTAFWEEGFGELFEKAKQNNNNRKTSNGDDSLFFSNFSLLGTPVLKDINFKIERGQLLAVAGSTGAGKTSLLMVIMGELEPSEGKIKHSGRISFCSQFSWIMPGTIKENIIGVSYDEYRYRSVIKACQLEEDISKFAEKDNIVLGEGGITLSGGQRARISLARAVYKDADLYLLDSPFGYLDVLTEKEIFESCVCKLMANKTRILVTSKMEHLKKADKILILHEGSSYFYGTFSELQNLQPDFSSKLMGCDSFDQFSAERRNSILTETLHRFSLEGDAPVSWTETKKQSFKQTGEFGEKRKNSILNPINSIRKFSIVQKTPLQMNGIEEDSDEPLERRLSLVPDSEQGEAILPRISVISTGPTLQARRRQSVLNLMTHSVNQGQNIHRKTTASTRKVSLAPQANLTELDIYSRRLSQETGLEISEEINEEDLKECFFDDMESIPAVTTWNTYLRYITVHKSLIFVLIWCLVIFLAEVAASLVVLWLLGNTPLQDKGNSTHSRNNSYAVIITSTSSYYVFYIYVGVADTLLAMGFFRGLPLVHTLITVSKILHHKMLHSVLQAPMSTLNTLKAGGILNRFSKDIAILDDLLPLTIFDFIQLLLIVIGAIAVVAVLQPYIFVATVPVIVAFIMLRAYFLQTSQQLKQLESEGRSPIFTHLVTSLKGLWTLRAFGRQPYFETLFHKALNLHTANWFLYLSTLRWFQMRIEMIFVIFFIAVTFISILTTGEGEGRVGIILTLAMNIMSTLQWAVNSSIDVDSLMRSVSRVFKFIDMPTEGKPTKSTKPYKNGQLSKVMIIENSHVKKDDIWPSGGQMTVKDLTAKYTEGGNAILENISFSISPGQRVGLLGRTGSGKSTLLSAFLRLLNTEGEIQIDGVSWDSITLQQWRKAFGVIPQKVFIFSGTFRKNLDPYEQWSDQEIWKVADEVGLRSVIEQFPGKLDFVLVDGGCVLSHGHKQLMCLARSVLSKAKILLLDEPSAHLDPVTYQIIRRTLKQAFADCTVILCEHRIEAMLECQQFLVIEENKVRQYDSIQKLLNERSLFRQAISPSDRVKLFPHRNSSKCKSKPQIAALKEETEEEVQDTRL
# Procedure, shortened: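 Compound acted as corrector on differentiated primary delF508-CFTR bronchial cultures, first 24 h basolaterally, then 45 min both sides before reading. Equivalent short circuit current was recorded during sequential forskolin and potentiator addition. EC50 came from 10-point, 1-in-3 dilution curves against the 0.1% DMSO baseline.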
# delF508-CFTR-HRP = molecular target: T2, delF508-CFTR-HRP (Homo sapiens, UniProt P13569, DEL508-508); test: Measurement of delF508-CFTR-HRP surface expression in CFBE41o- cells (HRP luminescence); assay type: cell-based; settings: for Emax: CFBE41o-, read-out: DelF508-CFTR-HRP Amax %; for pEC50: mean of at least two replicates;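 for DelF508-CFTR-HRP Amax %: percent efficacy relative to a reference CFTR corrector compound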
# T2 construct: expressed in transfected cells
# T2 sequence (P13569 with tags, fused parts or gaps DEL508-508): as above
# Procedure, shortened: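 EC50 derived by logistic regression of triplicate surface-HRP luminescence, plate-normalized to the lowest-concentration median. Doxycycline (500 ng/mL, 48 h) induced delF508-CFTR-HRP in CFBE41o- cells; compounds then applied 24 h at 37° C, 10 μM top, 3-fold over 10 points.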
MTECC24 CFHBEC-Amax % (delF508-CFTR) [%],pEC50 (delF508-CFTR),Emax (delF508-CFTR-HRP) [%],pEC50 (delF508-CFTR-HRP),Compound
120.3,6.46,300,5.69,"O=C(NS(=O)(=O)c1cccc(N2CC(O)C2)n1)C1(Oc2cc(Cl)ccc2C2CC3(CCC3)C2)CC1 [Example 7-9, 1-(5-Chloro-2-(spiro[3.3]heptan-2-yl)phenoxy)-N-((6-(3-hydroxyazetidin-1-yl)pyridin-2-yl)sulfonyl)cyclopropane-1-carboxamide]"
79,8.15,294,6.38,"Cc1ccc(-c2cccc(C(F)(F)F)c2)c(OC2(C(=O)NS(=O)(=O)c3cccc(N4CCC(N)(C(F)(F)F)CC4)n3)CC2)c1 [Example 5-16, N-((6-(4-Amino-4-(trifluoromethyl)piperidin-1-yl)pyridin-2-yl)sulfonyl)-1-((4-methyl-3′-(trifluoromethyl)-[1,1′-biphenyl]-2-yl)oxy)cyclopropane-1-carboxamide]"
170.7,6.34,279,6.15,"O=C(NS(=O)(=O)c1cccc(N2CC[C@H](O)C2)n1)C1(Oc2cc(Cl)ccc2N2CCC3(CCCCC3)CC2)CC1 [Example 9-14, (S)-1-(5-Chloro-2-(3-azaspiro[5.5]undecan-3-yl)phenoxy)-N-((6-(3-hydroxypyrrolidin-1-yl)pyridin-2-yl)sulfonyl)cyclopropanecarboxamide]"
128.4,7.24,377,6.38,"NC1(C(F)(F)F)CCN(c2cccc(S(=O)(=O)NC(=O)C3(Oc4cc(Cl)ccc4C4CC5(CCC5)C4)CC3)n2)CC1 [Example 7-17, N-((6-(4-amino-4-(trifluoromethyl)piperidin-1-yl)pyridin-2-yl)sulfonyl)-1-(5-chloro-2-(spiro[3.3]heptan-2-yl)phenoxy)cyclopropane-1-carboxamide]"
161.6,6.74,746,6.34,"CC1(C)CCN(c2ccc(Cl)cc2OC2(C(=O)NS(=O)(=O)c3cccc(N4CCC(O)(c5cccc(C(F)(F)F)c5)CC4)n3)CC2)CC1 [Example 10-2, 1-(5-chloro-2-(4,4-dimethylpiperidin-1-yl)phenoxy)-N-((6-(4-hydroxy-4-(3-(trifluoromethyl)phenyl)piperidin-1-yl)pyridin-2-yl)sulfonyl)cyclopropanecarboxamide]"
114,7.59,416,5.92,"Cc1ccc(-c2ccc(C(F)(F)F)cc2)c(OC2(C(=O)NS(=O)(=O)c3cccc(N4CC[C@H](O)C4)n3)CC2)c1 [Example 5-10, (S)—N-((6-(3-Hydroxypyrrolidin-1-yl)pyridin-2-yl)sulfonyl)-1-((4-methyl-4′-(trifluoromethyl)-[1,1′-biphenyl]-2-yl)oxy)cyclopropane-1-carboxamide]"

# More lines, now with the values behind:
Compound,MTECC24 CFHBEC-Amax % (delF508-CFTR) [%],pEC50 (delF508-CFTR),Emax (delF508-CFTR-HRP) [%],pEC50 (delF508-CFTR-HRP)
"Cc1ccc(C2CCCCC2)c(OC2(C(=O)NS(=O)(=O)c3cccc(N4CCC(C)(NC(=O)NC5CC5)CC4)n3)CC2)c1 [Example 2-11, 1-(2-Cyclohexyl-5-methylphenoxy)-N-((6-(4-(3-cyclopropylureido)-4-methylpiperidin-1-yl)pyridin-2-yl)sulfonyl)cyclopropanecarboxamide]",77,7.70,286,5.59
"Cc1ccc(C2CCCCC2)c(OC2(C(=O)NS(=O)(=O)c3cccc(N4CCC(C)(NC(=O)OC(C)(C)C)C4)n3)CC2)c1 (stereo not drawn) [Example 2-24, Tert-butyl (1-(6-(N-(1-(2-cyclohexyl-5-methylphenoxy)cyclopropanecarbonyl)sulfamoyl)pyridin-2-yl)-3-methylpyrrollidin-3-yl)carbamate]",62,8.30,591,5.90
"Cc1ccc(C2CCCCC2)c(OC2(C(=O)NS(=O)(=O)c3cccc(N4CCC(N)CC4)n3)CC2)c1 [Example 2-41, N-((6-(4-Aminopiperidin-1-yl)pyridin-2-yl)sulfonyl)-1-(2-cyclohexyl-5-methylphenoxy)cyclopropanecarboxamide]",54,6.18,142,5.53
"Cc1ccc(C2CCCCC2)c(OC2(C(=O)NS(=O)(=O)c3cccc(N4CC(C)(O)C4)n3)CC2)c1 [Example 2-16, 1-(2-Cyclohexyl-5-methylphenoxy)-N-((6-(3-hydroxy-3-methylazetidin-1-yl)pyridin-2-yl)sulfonyl)cyclopropanecarboxamide]",101,7.92,642,5.60
"Cc1ccc(C2CCCCC2)c(OC2(C(=O)NS(=O)(=O)c3cccc(N4CCC(C)(O)CC4)n3)CC2)c1 [Example 2-49, 1-(2-Cyclohexyl-5-methylphenoxy)-N-((6-(4-hydroxy-4-methylpiperidin-1-yl)pyridin-2-yl)sulfonyl)cyclopropane-1-carboxamide]",102,8.30,391,5.98
"Cc1ccc(C2CCCCC2)c(OC2(C(=O)NS(=O)(=O)c3cccc(N4CCNC(=O)C4)n3)CC2)c1 [Example 2-33, 1-(2-Cyclohexyl-5-methylphenoxy)-N-((6-(3-oxopiperazin-1-yl)pyridin-2-yl)sulfonyl)cyclopropanecarboxamide]",46,7.18,114,5.40
"Cc1ccc(C2CCC(F)(F)CC2)c(OC2(C(=O)NS(=O)(=O)c3cccc(N4CCCC(CO)C4)n3)CC2)c1 (single isomer, unassigned) [Example 3-3-1]",99,7.96,597,5.54
"Cc1ccc(C2CCCCC2)c(OC2(C(=O)NS(=O)(=O)c3cccc(N4CCOC(C)C4)n3)CC2)c1 (stereo not drawn) [Example 2-51, 1-(2-Cyclohexyl-5-methylphenoxy)-N-((6-(2-methylmorpholino)pyridin-2-yl)sulfonyl)cyclopropane-1-carboxamide]",85,8.52,621,5.75
"Cc1ccc(C2CCCCC2)c(OC2(C(=O)NS(=O)(=O)c3cccc(N4CCC(N)(CF)CC4)n3)CC2)c1 [Example 2-19, N-((6-(4-Amino-4-(fluoromethyl)piperidin-1-yl)pyridin-2-yl)sulfonyl)-1-(2-cyclohexyl-5-methylphenoxy)cyclopropanecarboxamide]",120,7.21,326,5.58
"Cc1ccc(C2CCCCC2)c(OC2(C(=O)NS(=O)(=O)c3cccc(N4CCN(c5ccccc5)CC4)n3)CC2)c1 [Example 2-54, 1-(2-Cyclohexyl-5-methylphenoxy)-N-((6-(4-phenylpiperazin-1-yl)pyridin-2-yl)sulfonyl)cyclopropane-1-carboxamide]",70,7.85,513,6.19
"Cc1ccc(C2CCCCC2)c(OC2(C(=O)NS(=O)(=O)c3cccc(N4CCC(C(=O)O)CC4)n3)CC2)c1 [Example 2-6, 1-(6-(N-(1-(2-cyclohexyl-5-methylphenoxy)cyclopropanecarbonyl)sulfamoyl)pyridin-2-yl)piperidine-4-carboxylic acid]",62,6.88,34,5.34
"Cc1ccc(C2CCCC(F)(F)C2)c(OC2(C(=O)NS(=O)(=O)c3cccc(N)n3)CC2)c1 (stereo not drawn) [Example 1-5, N-((6-Aminopyridin-2-yl)sulfonyl)-1-(2-(3,3-difluorocyclohexyl)-5-methylphenoxy)cyclopropane-1-carboxamide]",94,6.51,179,5.40
"Cc1ccc(C2(C(F)(F)F)CC2)c(OC2(C(=O)NS(=O)(=O)c3cccc(N4CC(C)(O)C4)n3)CC2)c1 [Example 4-17, N-((6-(3-Hydroxy-3-methylazetidin-1-yl)pyridin-2-yl)sulfonyl)-1-(5-methyl-2-(1-(trifluoromethyl)cyclopropy)phenoxy)cyclopropane-1-carboxamide]",55,7.12,156,5.39
"COC1CN(c2cccc(S(=O)(=O)NC(=O)C3(Oc4cc(C)ccc4C4CCCCC4)CC3)n2)C1 [Example 2-18, 1-(2-Cyclohexyl-5-methylphenoxy)-N-((6-(3-methoxyazetidin-1-yl)pyridin-2-yl)sulfonyl)cyclopropanecarboxamide]",91,7.68,597,5.80
"Cc1ccc(C2CCCCC2)c(OC2(C(=O)NS(=O)(=O)c3nc(N)ccc3F)CC2)c1 [Example 1-7, N-((6-Amino-3-fluoropyridin-2-yl)sulfony)-1-(2-cyclohexyl-5-methylphenoxy)cyclopropane-1-carboxamide]",54,7.40,109,5.55
